Experimental data reported in US11084800B2 (Achillion Pharmaceuticals, Inc., priority 2017, dated 2021).

biological target: Human Factor D (Homo sapiens (Human), UniProt P00746); assay: Human Factor D Assay; type: biochemical; conditions: Factor D inhibition, assay of Example 10; read-out: IC5 (Stars)
Procedure, shortened: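 Thioester substrate Z-L-Lys-SBz (100 μM) with Ellman's reagent DTNB (100 μM) reports activity of 80 nM human serum-derived enzyme, kinetically at 405 nm over 30 min. Compound preincubated 5 min, room temperature, pH 7.5 Tris/1 M NaCl; IC50 by nonlinear fit of rates.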

Chain of Human Factor D (P00746 26-253): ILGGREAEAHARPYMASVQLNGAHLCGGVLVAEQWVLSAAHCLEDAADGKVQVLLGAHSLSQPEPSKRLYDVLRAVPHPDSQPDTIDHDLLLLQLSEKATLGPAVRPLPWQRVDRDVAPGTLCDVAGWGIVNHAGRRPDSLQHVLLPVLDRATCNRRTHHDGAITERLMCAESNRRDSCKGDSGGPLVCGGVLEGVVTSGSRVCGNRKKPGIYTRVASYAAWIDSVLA

`CC(=O)c1nn(CC(=O)N2[C@H](C(=O)N[C@H](Cc3ccccc3)C(=O)O)C[C@@]3(C)C[C@@H]23)c2c(C)cc(-c3cnc(C)nc3)cc12` [Compound 462, ((1R,3S,5R)-2-(2-(3-acetyl-7-methyl-5-(2-methylpyrimidin-5-yl)-1H-indazol-1-yl)acetyl)-5-methyl-2-azabicyclo[3.1.0]hexane-3-carbonyl)-D-phenylalanine] and `CC(=O)c1nn(CC(=O)N2[C@H](C(=O)N[C@H](CC(C)C)C(=O)O)C[C@@]3(C)C[C@@H]23)c2c(C)cc(-c3cnc(C)nc3)cc12` [Compound 464, ((1R,3S,5R)-2-(2-(3-acetyl-7-methyl-5-(2-methylpyrimidin-5-yl)-1H-indazol-1-yl)acetyl)-5-methyl-2-azabicyclo[3.1.0]hexane-3-carbonyl)-D-leucine] fall in the same range of IC50: 1 to 10 µM for the first, 1 to 10 µM for the second.

`Cc1ncc(-c2ccc3c(c2)c(C(=O)C(F)(F)F)cn3CC(=O)N2[C@H](C(=O)Nc3nc(Br)ccc3C)C[C@@]3(C)C[C@@H]23)cn1` [Compound 465, (1R,3S,5R)-N-(6-bromo-3-methylpyridin-2-yl)-5-methyl-2-(2-(5-(2-methylpyrimidin-5-yl)-3-(2,2,2-trifluoroacetyl)-1H-indol-1-yl)acetyl)-2-azabicyclo[3.1.0]hexane-3-carboxamide] and `Cc1ncc(-c2cc3c(C(=O)C(F)(F)F)cn(CC(=O)N4[C@H](C(=O)Nc5nc(Br)ccc5C)C[C@@]5(C)C[C@@H]45)c3cn2)cn1` [Compound 470, (1R,3S,5R)-N-(6-bromo-3-methylpyridin-2-yl)-5-methyl-2-(2-(5-(2-methylpyrimidin-5-yl)-3-(2,2,2-trifluoroacetyl)-1H-pyrrolo[2,3-c]pyridin-1-yl)acetyl)-2-azabicyclo[3.1.0]hexane-3-carboxamide] cannot be ordered by IC50: under 1 µM for the first, under 1 µM for the second.

`CC(=O)c1nn(CC(=O)N2[C@H](C(=O)Nc3nc(Br)ccc3C)C[C@@]3(C)C[C@@H]23)c2cc(F)c(-c3cnc(C)nc3)cc12` [Compound 466, (1R,3S,5R)-2-(2-(3-acetyl-6-fluoro-5-(2-methylpyrimidin-5-yl)-1H-indazol-1-yl)acetyl)-N-(6-bromo-3-methylpyridin-2-yl)-5-methyl-2-azabicyclo[3.1.0]hexane-3-carboxamide] and `CC(=O)c1cn(CC(=O)N2[C@H](C(=O)Nc3nc(Br)ccc3C)C[C@@]3(C)C[C@@H]23)c2cc(F)c(-c3cnc(C)nc3)cc12` [Compound 482, (1R,3S,5R)-2-(2-(3-acetyl-6-fluoro-5-(2-methylpyrimidin-5-yl)-1H-indol-1-yl)acetyl)-N-(6-bromo-3-methylpyridin-2-yl)-5-methyl-2-azabicyclo[3.1.0]hexane-3-carboxamide] cannot be ordered by IC50: under 1 µM for the first, under 1 µM for the second.

Going from `COC(=O)c1nn(CC(=O)N2[C@H](C(=O)Nc3nc(Br)ccc3C)C[C@@]3(C)C[C@@H]23)c2ccc(-c3cnc(C)nc3)cc12` [Compound 467, Methyl 1-{2-[(1R,3S,5R)-3-[(6-bromo-3-methylpyridin-2-yl)carbamoyl]-5-methyl-2-azabicyclo[3.1.0]hexan-2-yl]-2-oxoethyl}-5-(2-methylpyrimidin-5-yl)indazole-3-carboxylate] to `Cc1ncc(-c2ccc3c(c2)c(C(=O)O)nn3CC(=O)N2[C@H](C(=O)Nc3nc(Br)ccc3C)C[C@@]3(C)C[C@@H]23)cn1` [Compound 469, 1-{2-[(1R,3S,5R)-3-[(6-Bromo-3-methylpyridin-2-yl)carbamoyl]-5-methyl-2-azabicyclo[3.1.0]hexan-2-yl]-2-oxoethyl}-5-(2-methylpyrimidin-5-yl)indazole-3-carboxylic Acid], the IC50 rises from under 1 µM to over 10 µM.

`CC(=O)c1cn(CC(=O)N2[C@H](C(=O)Nc3nc(Br)c(F)cc3C)C[C@@]3(C)C[C@@H]23)c2c(C)nc(-c3cnc(C)nc3)cc12` [Compound 471] and `CC(=O)c1cn(CC(=O)N2[C@H](C(=O)Nc3nc(Br)ccc3C)C[C@@]3(C)C[C@@H]23)c2c(C)nc(-c3cnc(C)nc3)cc12` [Compound 472, (1R,3S,5R)-2-(2-(3-Acetyl-7-methyl-5-(2-methylpyrimidin-5-yl)-1H-pyrrolo[2,3-c]pyridin-1-yl)acetyl)-N-(6-bromo-3-methylpyridin-2-yl)-5-methyl-2-azabicyclo[3.1.0]hexane-3-carboxamide] cannot be ordered by IC50: under 1 µM for the first, under 1 µM for the second.

`CCNC(=O)c1nn(CC(=O)N2[C@H](C(=O)Nc3nc(Br)ccc3C)C[C@@]3(C)C[C@@H]23)c2ccc(-c3cnc(C)nc3)cc12` [Compound 474, 1-{2-[(1R,3S,5R)-3-[(6-Bromo-3-methylpyridin-2-yl)carbamoyl]-5-methyl-2-azabicyclo[3.1.0]hexan-2-yl]-2-oxoethyl}-N-ethyl-5-(2-methylpyrimidin-5-yl)indazole-3-carboxamide] and `CC(=O)c1c(C)n(CC(=O)N2[C@H](C(=O)Nc3nc(Br)ccc3C)C[C@@]3(C)C[C@@H]23)c2ccc(-c3cnc(C)nc3)cc12` [Compound 483, (1R,3S,5R)-2-(2-(3-acetyl-2-methyl-5-(2-methylpyrimidin-5-yl)-1H-indol-1-yl)acetyl)-N-(6-bromo-3-methylpyridin-2-yl)-5-methyl-2-azabicyclo[3.1.0]hexane-3-carboxamide] cannot be ordered by IC50: under 1 µM for the first, under 1 µM for the second.

With `CC(=O)c1nn(CC(=O)N2[C@H](C(=O)Nc3nc(Br)c(F)cc3C)C[C@@]3(Cc4nnc(C)o4)C[C@@H]23)c2c(C)cc(-c3cnc(C)nc3)cc12` [Compound 484, (1R,3S,5R)-2-(2-(3-acetyl-7-methyl-5-(2-methylpyrimidin-5-yl)-1H-indazol-1-yl)acetyl)-N-(6-bromo-5-fluoro-3-methylpyridin-2-yl)-5-((5-methyl-1,3,4-oxadiazol-2-yl)methyl)-2-azabicyclo[3.1.0]hexane-3-carboxamide] the IC50 was under 1 µM.

same assay, conditions: Table 8; Factor D 80 nM, substrate Z-L-Lys-SBz; read-out: IC50

`CCCNC(=O)c1nn(CC(=O)N2[C@H](C(=O)Nc3nc(Br)ccc3C)C[C@@]3(C)C[C@@H]23)c2ccc(-c3cnc(C)nc3)cc12` [Compound 475] and `CCCCNC(=O)c1nn(CC(=O)N2[C@H](C(=O)Nc3nc(Br)ccc3C)C[C@@]3(C)C[C@@H]23)c2ccc(-c3cnc(C)nc3)cc12` [Compound 476] cannot be ordered by IC50: under 1 µM for the first, under 1 µM for the second.

`CCCCCNC(=O)c1nn(CC(=O)N2[C@H](C(=O)Nc3nc(Br)ccc3C)C[C@@]3(C)C[C@@H]23)c2ccc(-c3cnc(C)nc3)cc12` [Compound 477, 1-(2-((1R,3S,5R)-3-((6-bromo-3-methylpyridin-2-yl)carbamoyl)-5-methyl-2-azabicyclo[3.1.0]hexan-2-yl)-2-oxoethyl)-5-(2-methylpyrimidin-5-yl)-N-pentyl-1H-indazole-3-carboxamide] and `Cc1ncc(-c2ccc3c(c2)c(C(=O)NCC(C)(C)C)nn3CC(=O)N2[C@H](C(=O)Nc3nc(Br)ccc3C)C[C@@]3(C)C[C@@H]23)cn1` [Compound 480] cannot be ordered by IC50: over 10 µM for the first, over 10 µM for the second.

First: Cc1ncc(-c2ccc3c(c2)c(C(=O)NCC2CC2)nn3CC(=O)N2[C@H](C(=O)Nc3nc(Br)ccc3C)C[C@@]3(C)C[C@@H]23)cn1 [Compound 478, 1-(2-((1R,3S,5R)-3-((6-bromo-3-methylpyridin-2-yl)carbamoyl)-5-methyl-2-azabicyclo[3.1.0]hexan-2-yl)-2-oxoethyl)-N-(cyclopropylmethyl)-5-(2-methylpyrimidin-5-yl)-1H-indazole-3-carboxamide]
Second: Cc1ncc(-c2ccc3c(c2)c(C(=O)NCC2CCC2)nn3CC(=O)N2[C@H](C(=O)Nc3nc(Br)ccc3C)C[C@@]3(C)C[C@@H]23)cn1 [Compound 479]
The IC50 of the first is lower: under 1 µM for the first, 1 to 10 µM for the second. The first is the more potent here.
